From US4980377A, “1-(aminophenyl)-2-aminopropanone derivatives” (Laboratoire L. Lafon, priority 1984, dated 1990)
“Also recorded” adds a separate entry of the source. Structures can show the parent of a compound that is named as a salt.

Experiments:
[1] = test system: mice; experiment: Overall behavior and reactivities in mice; format: in vivo, mouse; settings: dose not stated
Method: (§1) In the neuropsychopharmacological study which follows, a solution of CRL 41 153 in distilled water (pH 1.5) was administered intraperitoneally in a volume of 20 ml/kg to male mice and 5 ml/kg to male rats.
(§2) Groups of three animals are observed before and then 0.25 hour, 0.50 hour, 1 hour, 2 hours, 3 hours and 24 hours after the administration of CRL 41 153.

[2] = test system: rats; experiment: Overall behavior and reactivities in rats; format: in vivo, rat; settings: dose not stated
Method: as §1, §2

[3] = test system: mice; experiment: Interaction with apomorphine in mice; format: in vivo, mouse; settings: i.p.
Method: Groups of 6 mice receive CRL 41 153 0.5 hour before the subcutaneous injection of 1 or 16 mg/kg of apomorphine.

[4] = test system: rats; experiment: Interaction with apomorphine in rats; format: in vivo, rat; settings: i.p.
Method: CRL 41 153 is administered to groups of 6 rats 0.5 hour before the subcutaneous injection of 0.5 mg/kg of apomorphine.

[5] = test system: rats; experiment: Interaction with amphetamine; format: in vivo, rat; settings: i.p.
Method: Amphetamine (2 mg/kg) is injected intraperitoneally into groups of 6 rats 30 minutes after the administration of CRL 41 153. […] 4 mg/kg and 16 mg/kg, CRL 41 153 potentiates the intensity and duration of the stereotypies induced by amphetamine.

[6] = test system: mice; experiment: Interaction with reserpine; format: in vivo, mouse; settings: i.p.
Method: Four hours after the intraperitoneal injection of 2.5 mg/kg of reserpine, groups of 6 mice receive CRL 41 153.

[7] = test system: mice; experiment: Interaction with oxotremorine; format: in vivo, mouse; settings: i.p.
Method: CRL 41 153 is administered to groups of 6 mice 0.5 hour before the intraperitoneal injection of 0.5 mg/kg of oxotremorine.

[8] = test system: mice; experiment: Four plate test, traction and electric shock; format: in vivo, mouse; settings: i.p.
Method: The test is performed on groups of 10 mice 30 minutes after the administration of CRL 41 153.

[9] = test system: mice; experiment: Spontaneous motility; format: in vivo, mouse; settings: i.p.
Method: 0.5 hour after they have received CRL 41 153, the mice (6 per dose, 12 control animals) are placed in an actimeter, where their motility is recorded for 30 minutes.

[10] = test system: mice; experiment: Motility reduced by habituation to the enclosure; format: in vivo, mouse; settings: i.p.
Method: After they have stayed In the actimeters for 18 hours, (he mice (6 per dose, 12 control animals) receive CRL 41 153. They are immediately returned to their respective enclosures and, half an hour later, their motility is recorded for 30 minutes.

[11] = test system: mice; experiment: Motility reduced by hypoxic aggression; format: in vivo, mouse; settings: i.p.
Method: Half an hour after they have received CRL 41 153, the mice (10 per dose, 20 control animals) are subjected to acute hypobaric anoxia [pressure reduction of 600 mm Hg (i.e. about 8×10^4 Pa) in 90 seconds; release of vacuum in 45 seconds] and are then placed in an actimeter, where their motility is recorded for 10 minutes.

[12] = test system: mice; experiment: Interaction with barbital; format: in vivo, mouse; settings: i.p., barbital 220 mg/kg
Method: Half an hour after the administration of CRL 41 153, groups of 10 mice receive an intraperitoneal injection of barbital (220 mg/kg).

[13] = test system: mice; experiment: Behavioral despair; format: in vivo, mouse; settings: forcibly immersed mice, i.p.
From the text: Half an hour after they have received CRL 41 153, groups of 6 mice are placed in a beaker filled with water to a height of 6 cm. The total period of immobility between the 2nd and 6th minutes following immersion is noted.

[14] = test system: gravid White New Zealand female rabbits; experiment: Teratogenicity in gravid White New Zealand rabbits; format: in vivo, rabbit; settings: 50 mg/kg daily, day 5 to day 18 of gestation
Method: The protocol used comprised administering to gravid White New Zealand female rabbits (weighing each about 2900-3000 grams before gestation) a daily dose of 0 (batch of control animals), 5,10 or 50 mg/kg of each product to be tested by gastrogavage from day 5 to day 18 of gestation, then carrying out a cesarean operation on day 29 of gestation in order to enumerate:
(i) the total number of foestuses, and
(ii) the total number of foestuses presenting at least one malformation.
To appreciate the results of such a protocol it must be noted that natural malformations may occur. Statistically, the percentage of foetuses presenting at least one malformation in any control batch of gravid White New Zealand female rabbits is lower than or equal to 1.5% with respect to the total number of foetuses.
To be precise in this protocol a malformation comprises at least one of the following cases: articular limb blocade, anorous foetus, deviated tail, shorter tail, skull deformation, exemcephalia.

[15] = pH of solutions in distilled water; format: physicochemical
Method: The neuropsychopharmacological study was undertaken according to the procedures described above for CRL 41 153, CRL 41 213 being adminstered intraperitoneally, in solution in distilled water, in a volume of 20 ml/kg to male mice and a volume of 5 ml/kg to male rats, and the pH of the injected solution varying with the concentration of CRL 41 213 according to the data given in Table II below.

[16] = test system: CNS; experiment: Neuropsychopharmacological profile as a whole; format: in vivo, mice and rats
Method: as §1

CNC(C)C(=O)c1ccc(N)cc1 (stereo not shown) [CRL 41 218, 1-4-aminophenyl)-2-methylaminopropanone dihydrochloride]
Overall behavior: observed effects (summary) [1]: excitation in mice and rats
Stereotype movements (summary) [1]: presence of stereotype movements
Overall behavior: observed effects (summary) [2]: excitation in mice and rats
Stereotype movements (summary) [2]: presence of stereotype movements
Effect on hypothermia induced by apomorphine [3]: antagonism of the hypothermia
Effect on stereotypies induced by apomorphine [4]: potentiation of the stereotypies
Effect on stereotypies induced by amphetamine [5]: potentiation of the stereotypies
Effect on hypothermia induced by reserpine [6]: antagonism of the hypothermia
Effect on ptosis induced by reserpine [6]: antagonism of the ptosis induced by reserpine
Effect on hypothermic action of oxotremorine [7]: antagonism of the hypothermia
Effect on convulsant effects of electric shock [8]: antagonism, at strong doses, of the convulsant effects of electric shock
Spontaneous motor activity [9]: increase in the motor activity
Motor activity of mice accustomed to their enclosure [10]: resumption in the motor activity of mice accustomed to their enclosure
Motor recovery of mice after hypobaric hypoxia [11]: improvement in the motor recovery
Duration of the sleep induced by barbital [12]: distinct antagonism of the sleep induced by barbital
Period of immobility due to despair [13]: a reduction in the period of immobility
Affected foetuses, number [14]: 1
Total foetuses (live) [14]: 79
Affected foetuses, % ([14]; normal limit 1.5%): 1.26%
pH ([15]; 6 g/liter in distilled water): 5.0
pH ([15]; 13 g/liter in distilled water): 4.5
pH ([15]; 50 g/liter in distilled water): 4.0
pH ([15]; ≤3 g/liter in distilled water): 5.5
Anticonvulsant effects (overall) ([16]; conclusion of the tests): anticonvulsant effects
Antidepressant effects (overall) ([16]; conclusion of the tests): antidepressant effects
Stimulant effects (overall) ([16]; conclusion of the tests): stimulant effects
α-adrenergic stimulant effects (overall) ([16]; conclusion of the tests): α-adrenergic stimulant effects
Peripheral α-adrenergic signs (mydriasis, salivation, lacrimation, exophthalmos) ([16]; species and dose not stated, dihydrochloride): mydriasis; also recorded: salivation
